According to patent US9493466B2, “Treatment of cancer with TOR kinase inhibitors” (Signal Pharmaceuticals, LLC, priority 2011, dated 2016):

Experiments:
[1] = test system: advanced solid tumors, non-Hodgkin lymphoma or multiple myeloma; assay: Phase 1/2 study Part A: tumor response; type: in vivo, human
Text: Subjects will be evaluated for efficacy every 2 cycles through cycle 6 and every 3 cycles thereafter. The primary efficacy variable is response. Tumor assessments, including imaging (CT, MRI and/or PET) of the chest and abdomen and other sites as appropriate, will be performed during Screening. Subjects with brain lesions will also have brain scans at Screening and during follow-up tumor assessments. After Screening, tumor assessments (for all tumors except multiple myeloma) will be performed on completion of Cycles 2, 4 and 6 (i.e., on Cycles 3, 5 and 7/Day 1±7 days) and then every 3 months thereafter (e.g., Cycle 10 and 13/Day 1±7 days). Tumor assessment (for multiple myeloma and only NHL/DLBCL with known or suspected marrow involvement) (bone marrow aspiration and biopsy, with PD biomarker analysis, cytogenetic analysis if abnormally present at Screening) will be performed on completion of Cycles 4, 8, 12 and 16 only (i.e., on Cycles 5, 9, 13 and 17/Day 1±7 days). Cytogenetics need not be repeated if normal at Screening. Tumor response will be based on Response Evaluation Criteria in Solid Tumors (RECIST 1.1), International Workshop Criteria (IWC) for NHL/DLBCL or International Uniform Response Criteria (IURC) for Multiple Myeloma, and RANO for GBM, using the post resection MRI scan as the baseline. Given the difficulty in assessing tumor response following salvage surgery, the primary efficacy endpoint for GBM will be the proportion of subjects progression-free at 6 months from Day 1 relative to efficacy evaluable subjects in the GBM type. Subjects will be evaluated for tumor response on completion of Cycle 2, 4, 6, and so on. A descriptive analysis of evidence of anti-tumor activity will be provided based on clinical and radiographic assessments by the investigator, which includes assessment of target lesion, non-target lesion, new lesion and overall response.
The efficacy variable of focus for Part A will be best overall response. Other preliminary efficacy variables will be summarized using frequency tabulations for categorical variables or descriptive statistics for continuous variables.
Part A: Accelerated Dose Escalation Results.

U87MG tumors = assay: Ki67 immunohistochemistry in U87MG tumors; type: in vivo, mice; conditions: 5 mg/kg BID oral for 4 days; p<0.001
Experimental: Mechanism of action studies. To determine the mechanism of action of Compound 1, mice bearing U87MG tumors of approximately 500 mm^3 were dosed orally with vehicle or Compound 1 at 5 mg/kg BID for 4 days. The positive control, rapamycin, was dosed at 4 mg/kg Q3D for 4 days. Two hours after the 7th dose of Compound 1 on day 4, animals were euthanized and tumors were dissected out and snap frozen in liquid nitrogen. In the rapamycin-treated group tumors were collected at 2 hour after the 2nd dose on day 4. The tumors were processed for immunohistochemistry (IHC) or TUNEL.
Immunohistochemistry. Five to ten micron (5-10 μm) thick cryostat sections were used for IHC. The expression of the cell proliferation marker Ki67 was evaluated by IHC using anti-Ki67 antibody. […] The sections were visualized with a Nikon E800 microscope equipped with fluorescence detection equipment and a digital camera attached to a computer.
Quantitation of Immunohistochemistry. The tissues sections processed for apoptosis or immunostained for proliferating cells (Ki67) or blood vessels were quantitated using Metamorph software. Using 20× objective, 5 different fields from each section, 2-4 sections from each tumor, and 3-4 tumors from each treatment group or control were used for quantitation. The area of interest was expressed as the percent threshold area of the total area. […]

[2] = ER+/Her2− breast cancer subject

CO[C@H]1CC[C@H](N2C(=O)CNc3ncc(-c4ccc(C(C)(C)O)nc4)nc32)CC1 [Compound 1, 7-(6-(2-hydroxypropan-2-yl)pyridin-3-yl)-1-((1r,4r)-4-methoxycyclohexyl)-3,4-dihydropyrazino-[2,3-b]pyrazin-2(1H)-one]
regression of target lesions ([1]; 1 breast cancer subject, FIG. 27): greater than 30% | duration of Partial Response, first restaging scan to last scan [1, 2]: 220 days | duration of partial response, first restaging scan to last dose [1, 2]: 271 days | time to progression, first dose to last dose [1, 2]: 328 days | time to progression, first dose to last scan [1, 2]: 277 days | maximum reduction in target lesions ([1]; ER+/Her2− breast cancer subject, after 10 cycles): 50% | reduction in target lesions ([1]; ER+/Her2− breast cancer subject, first restaging after 2 cycles): 30% | longest duration of SD ([1]; Part A): 24 weeks | subjects with target lesion responses in the stable range ([1]; Part A, FIG. 28): Fifteen subjects | subjects with Stable Disease at first restaging ([1]; Part A, after 2 cycles): Eight subjects | subjects with PR (best overall response) ([1]; Part A, breast cancer, dose escalated from 30 to 45 mg, more than 11 cycles): One subject | reduction in the number of proliferating cells (Ki67) compared with vehicle (U87MG tumors): 59%
